The values below come from patent publication US20240315992A1, “AMINOXY ACID-BASED ANTIBACTERIAL COMPOUNDS AND METHODS THEREOF” (The University of Hong Kong, priority 2023, published 2024).

Values after ≈ are worked out from the molar mass of the structure shown. Read-outs that look alike come from different tables or passages of the source.

Holding throughout (format): cell-based
One series concerns MSSA ATCC 29213. In words: MIC by CLSI broth micro-dilution, MSSA ATCC 29213. Particulars: Staphylococcus aureus, read-out: Minimum inhibitory concentration. On the procedure: (§1) Aminoxy acids were synthesized by the standard peptide coupling procedures. Minimum inhibitory concentration was determined using CLSI broth micro-dilution method in 96-wells microtitre plates. Minimum inhibitory concentration is defined as the lowest concentration of the compound that inhibits visible growth of the bacteria. All experiments were performed three times. 24 compounds including aminoxy acid monomers and dipeptides have been identified to show toxicity against multidrug resistant Staphylococcus aureus Mu3 and summarized in Table 1. The minimum inhibitory concentration of compound 8 and compound 35 on other gram-positive bacteria was also evaluated and summarized in Table 2. […] As shown in FIGS. 3A-3B there are no observable hemolysis for compound 8 and compound 35 towards human red blood cell.
(§2) Bacteria were streaked from the glycerol stock into BHI agar and were incubated overnight. Single colony was picked for the overnight culture in cation-adjusted Mueller Hinton broth (CAMH), LB or BHI. The overnight culture was sub-cultured and regrew to exponential phase for the experiment.
(§3) MIC was determined by CLSI broth micro-dilution method in 96-wells microtitre plates. […] Optical density was recorded by DTX 880 multimode detector (Beckman Coulter, California, US). […]
For orientation: In broth dilution the organism is exposed to a series of concentrations in liquid medium.

Series [1] deals with Staphylococcus aureus ATCC 29213 persister. Briefly: Killing of Staphylococcus aureus persister. The settings on record: 10×MIC, persisters enriched with ciprofloxacin. The source says:
FIG. 4 is a line graph showing the killing kinetics of the compound 8 and compound 35 towards Staphylococcus aureus persister compared to the conventional antibiotics. […] Data were representative of 3 independent experiments±S.D.
Persisters are the phenotypic variants of the normal bacteria with reduced metabolism. They highly tolerate to the conventional […]. Persisters was enriched by the addition of 100-fold minimum inhibitory concentration of bactericidal antibiotics ciprofloxacin to the stationary phase bacteria. After 24 hours' culture, ciprofloxacin was removed. Persisters were treated with compound 8, compound 35 or different conventional antibiotics.
S. aureus ATCC 29213 cells were sub-cultured from an overnight culture in CAMH 1:100 for 24 hours at 37° C. with 250 rpm shaking speed. Persisters were prepared by addition of ciprofloxacin hydrochloride (25 μg/mL, 100×MIC in Staphylococcus aureus ATCC 29213) and cultured for 24 hours at 37° C. with 250 rpm shaking speed. Persisters were washed by PBS (12,000×g, 3 minutes) and resuspended in PBS+1% CAMH medium (same volume as original culture). 1 mL portions were aliquoted into fresh culture tubes, and different antibiotics or DMSO (1% maximum concentration) were added, followed by incubation at 37° C. with 250 rpm shaking speed. […]

Another series deals with MRSA-USA300LAC. In words: MIC by CLSI broth micro-dilution, MRSA-USA300LAC. The settings on record: Staphylococcus aureus, read-out: Minimum inhibitory concentration. How it is done:
as §1, §2, §3

The subject of series [2] is Staphylococcus aureus ATCC 29213. Briefly: Scanning and transmission electron microscopy. The settings on record: 24 hours treatment, SEM and TEM. On the procedure:
FIGS. 16A-16B are the images showing the compound 8 and compound 35 can induced the cell burst of Staphylococcus aureus. (FIG. 16A) Cells are imaged under scanning electron microscope. (FIG. 16B) Cells are imaged under transmission electron microscope.
Briefly, an overnight culture of Staphylococcus aureus ATCC 29213 was sub-cultured 1:100 in fresh CAMH and regrown for 2 hours. Then the bacteria were treated with compound or DMSO negative control for 24 hours. The bacterial pellet was resuspended in PBS and loaded on 0.22 μm filter membrane. The bacteria were fixed on the membrane by 2.5% glutaraldehyde for overnight at 4° C. The filter membranes were washed by PBS and subsequently dehydrated using ethanol as shown below.
The samples were submitted to HKU Electron Microscope Unit (EMU) for critical point drying, mounting and coating of the specimens. Samples were then observed using LEO 1530 FEG Scanning Electron Microscope.
Briefly, an overnight culture of Staphylococcus aureus ATCC 29213 was sub-cultured 1:100 in fresh CAMH and regrown for 2 hours. Then the bacteria were treated with compound or negative control DMSO for 24 hours. The bacterial pellet was then washed by PBS and fixed in cacodylate buffer (0.1 M sodium cacodylate-HCl buffer pH 7.4) for 1 hour at 4° C. […]

The subject of series [3] is multidrug resistant Staphylococcus aureus Mu3. Briefly: MIC by CLSI broth micro-dilution, MRSA Mu3. On the procedure:
as §1, §2
MIC was determined by CLSI broth micro-dilution method in 96-wells microtitre plates. For compounds dissolved in water, 100 μL of 2× testing concentration was added to the first well of each column, followed by two-fold serial dilution for successive wells with 50 μL medium. For chemical compounds dissolved in DMSO, the compounds were two-fold serial diluted by DMSO in a DMSO-compatible 96-well plate. 1 μL of compound in DMSO was transferred into 96-wells microtitre plate containing 50 μL medium to give 2× testing concentration. An overnight culture of bacteria was grown into exponential phase. The bacteria culture was diluted to 1×10^6 CFU/mL and 50 μL of diluted culture were added into each well. The test plates were kept in a 37° C. incubator overnight. Optical density was recorded by DTX 880 multimode detector (Beckman Coulter, California, US). MIC is defined as the lowest concentration of the compound that inhibits visible growth of bacteria. Biological replicates were performed. CAMH was used for bacteria culture and MIC test except S. pneumoniae, L. monocytogenes, E. faecalis and M. smegmatis for which BHI was used as culture medium

The test system of a further series is MIHA. Briefly: Mammalian cell cytotoxicity assay (MTT), MIHA. Particulars: at 16 folded MIC (50 μM compound 8, 12.5 μM compound 35). On the procedure: FIGS. 2A-2B are the bar graphs showing the cytotoxicity of compound 8 (FIG. 2A) and compound 35 (FIG. 2B) towards mammalian cell NIH3T3, MDCK and MIHA. % survival is mean±S.D normalized to DMSO as the negative control of a representative experiment. Biological triplicates were conducted.
In the treated culture dish, cells were washed by PBS and then trypsinized. DMEM was added to quench the reaction. Cells were centrifuged and resuspended into fresh DMEM. Cells were then seeded in 96-well microtitre plate (100 μL, 5000 cells per well) for 24 hours before addition of compounds. The compounds were two-fold serial diluted by DMSO in a DMSO-compatible 96-well plate. 1 μL of compound in DMSO is transferred into the 96-well microtitre preparation plate containing 100 μL DMEM medium. The medium in culture plate was removed and compounds in preparation plate were transferred to culture plate. Equal volume of DMSO was used as negative control.
After 24 hours of incubation of cells, cell viability was measured by MTT assay. In MTT assay, 20 μL 5 mg/mL MTT solution in PBS was added to cell medium and cultured for 3 hours. The medium was then removed and 50 μL DMSO was added and cultured for 10 minutes. Absorbance at 595 nm was measured spectrophotometrically (Beckman Coulter DTX 880 Multimode Detector) and normalized to DMSO group. Biological replicates were performed.

Setting [4] is: MRSA Mu3 (Table 2), read-out: Minimum inhibitory concentration.
Setting [5] is: MRSA, CLSI broth micro-dilution, CAMH, read-out: Minimum inhibitory concentration (μM) in MRSA Mu3.

As for `CC(C)C[C@H](ONC(=O)[C@@H](COCc1ccccc1)ONC(=O)c1cc(C(F)(F)F)cc(C(F)(F)F)c1)C(=O)Nc1ccccc1` [Compound 8], the MIC (in the series with MSSA ATCC 29213; in the series with MRSA-USA300LAC; in series [3] (setting [4]); in series [3] (setting [5])) was 3.13 µM (≈ 2.05 µg/mL) each time. In series [1], the “bactericidal effect on Staphylococcus aureus persister” value is given as “can eradicate the Staphylococcus aureus persister”. Also, the “cell morphology under electron microscope” value in series [2] was “severe cell abnormality including cell burst and irregular shape of cell wall”. Further, the “toxicity against mammalian cell MIHA” value with MIHA is listed as “minimal toxicity”.
Consider `CC(C)C[C@H](ONC(=O)[C@@H](COCc1ccccc1)ONC(=O)c1cc(C(F)(F)F)cc(C(F)(F)F)c1)C(=O)Nc1ccc2c(c1)OC(F)(F)O2` [Compound 35], for which the MIC is 1.56 µM (≈ 1.15 µg/mL) in the series with MSSA ATCC 29213, 1.56 µM (≈ 1.15 µg/mL) in the series with MRSA-USA300LAC, 0.78 µM (≈ 0.574 µg/mL) in series [3] (setting [4]) and 0.781 µM (≈ 0.574 µg/mL) in series [3] (setting [5]). For the same compound, the “bactericidal effect on Staphylococcus aureus persister” value in series [1] is on record as “can eradicate the Staphylococcus aureus persister”. Besides, the “cell morphology under electron microscope” value in series [2] was “severe cell abnormality including cell burst and irregular shape of cell wall”. Moreover, the “toxicity against mammalian cell MIHA” value in the series with MIHA is recorded as “minimal toxicity”.
